# “Also recorded” adds a separate entry of the source.
# Tests used:
# rat liver arginase = molecular target: T1, rat liver arginase (Rattus norvegicus, UniProt P07824); test: [14C-guanidino]-arginine arginase activity assay (Example 2); assay type: biochemical; details: 100 millimolar CHES, pH 9.0, 1 millimolar arginine; read-out: IC50 for inhibition of arginase
# T1 sequence (P07824 1-323): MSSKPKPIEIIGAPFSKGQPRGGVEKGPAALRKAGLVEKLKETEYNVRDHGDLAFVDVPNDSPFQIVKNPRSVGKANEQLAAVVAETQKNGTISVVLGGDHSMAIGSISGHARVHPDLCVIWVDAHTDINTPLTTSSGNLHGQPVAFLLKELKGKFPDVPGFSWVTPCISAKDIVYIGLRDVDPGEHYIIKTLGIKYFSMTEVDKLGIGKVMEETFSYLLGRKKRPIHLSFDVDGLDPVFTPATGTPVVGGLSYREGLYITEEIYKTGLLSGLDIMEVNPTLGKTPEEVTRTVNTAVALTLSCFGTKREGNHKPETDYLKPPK
# Description: Arginase activity was assessed using the ^(14C-guanidino)-arginine assay of Rüegg et al. (1980, Anal. Biochem. 102:206-212), as described (Reczkowski et al., 1994, Arch. Biochem. Biophys. 312:31-37). […] […] et al., 1994, Biochem. Biophys. Res.
# [1] = test system: internal anal sphincter (IAS) smooth muscle; test: NANC nerve-mediated relaxation of IAS smooth muscle strips by electrical field stimulation; set-up: species or system opossum (Didelphis virginiana); details: for decrease in basal IAS tension after ABHA: 1×10^−4 molar
# Description: The entire anal canal was isolated carefully by dissection and transferred to a dissecting tray containing oxygenated (95% O2 plus 5% CO2) Krebs' solution. The composition of the Krebs' solution was as follows (in millimolar): NaCl, 118.07; KCl 4.69; […] MgSO4, 1.16; […] NaHCO3, 25 and glucose (Pufahl et al., 1995, Biochemistry 34:1930-1941; […] et al., 1993, Biochem. Biophys. Res. Commun. 196:1558-1565). The anal canal was cleaned of extraneous connective tissue and blood vessels. Following this, the anal canal was opened by making an incision along the longitudinal axis, and was pinned flat with the mucosal side facing up. The mucosa and submucosa were removed by sharp dissection. Circular smooth muscle strips were obtained from the whole circumference of the anal canal and divided into two equal strips (about 1×8 millimeters). Both ends of the muscle strips were secured with silk sutures (4-0: Ethicon Inc., Sommerville, N.J.) and used for the measurement of isometric tension. […] One end of each muscle strip was fixed to the bottom of the muscle bath with a tissue holder and the other end was attached to an isometric force transducer (model FT03; Grass Instruments Co., Quincy, Mass.) in order to measure isometric tension. Smooth muscle tension was recorded using a […] recorder (model […]; Beckman Instruments, Schiller Park, Ill.). […] J. Physiol. 255:[…]-[…]). Only those smooth muscle strips that developed spontaneous and steady tension and relaxed in response to electrical field stimulation (EFS) were used. EFS was delivered, via a pair of platinum wires, from a Grass stimulator (Model S88; Grass Instruments Co., Quincy, Mass.) connected in series to a Med-Lab […] (Med-Lab Instruments, Loveland, Colo.). […] These parameters of EFS are known to cause relaxation of IAS smooth muscle by selective activation of NANC myenteric neurons. Neurally-mediated relaxation of IAS smooth muscle strips was quantified in response to different frequencies of EFS. […] To determine the influence of arginase on NANC nerve-mediated relaxation of IAS, the effects of different doses of arginase on relaxation were first determined. […] The effectiveness of arginase inhibitors (L-OH-Arg and ABHA) on arginase-induced attenuation of EFS-induced IAS relaxation was then tested. Optimal doses of arginase and L-OH-Arg in IAS have been reported ([…] and […]. Pharmacol. Exp. Ther. 282:378-384). In order to determine the selectivity of arginase inhibitors in IAS, their effects on IAS relaxation suppressed by the NO synthase inhibitor L-NNA ([…]) were tested. […] To examine the physiological relevance of arginase inhibitors in IAS relaxation, the influence of selected concentrations of arginase inhibitors on EFS-induced IAS relaxation was examined. […] Each smooth muscle strip served as its own control. […] The results are expressed as means±standard error.
# IAS arginase activity = test: arginase activity in IAS homogenate; assay type: biochemical, opossum
# Description: Tissue samples of the opossum internal anal sphincter muscle (IAS), adjoining rectal tissue, liver, and brain were homogenized using an ULTRATURRAX™ tissue homogenizer (Tekamr, Cincinnati, Ohio) in a solution comprising 10 millimolar Tris-HCl, 150 millimolar KCl, and 25 millimolar MnCl2, at pH 7.4. The homogenates were dialyzed overnight against the same solution. Dialyzed homogenates were centrifuged to remove insoluble material and concentrated with Amicon CENTRICON™ 30 microconcentrators to yield stock protein preparations having protein concentrations of 2.4 milligrams per milliliter for IAS smooth muscle, 3.6 milligrams per milliliter for rectal smooth muscle, 3 milligrams per milliliter for brain, and 17.5 milligrams per milliliter for liver. Protein concentrations were estimated with the Pierce Coomassie Protein Reagent kit using bovine serum albumin as a standard.
# Arginase activity in tissue homogenates was evaluated using the radioactive L-[guanidino^14C]arginine assay of Rüegg and Russell (1980, Anal. Biochem. 102:206-212). Assays were performed using a solution comprising 100 millimolar CHES-NaOH and 0.1 millimolar MnCl2 at pH 9.0. The reactions were initiated by addition of 5 microliters of tissue homogenate to 45 microliters of reaction mixture that contained the CHES buffer, the appropriate concentration of arginine (0.5 to 5 millimolar) and about 5.0×10^4 counts per minute of L-[guanidino-^14C]arginine. IAS, rectal muscle, and brain homogenates were incubated with the assay mixture at room temperature for one hour, and the liver sample was incubated for 5 minutes. […] Urea was separated from non-reacted L-[guanidino-^14C]arginine by treatment with 200 μl of 1:1 v/v slurry of DOWEX™ 50W-X8 in water, and quantitated by adding 200 microliters of the supernatant from the DOWEX™ treatment to 3 milliliters of LIQUISCENT™ (National Diagnostics) for liquid scintillation counting in a Beckman LS 5000CE counter. The data were analyzed using double-reciprocal plots of the initial velocity measurements; standard errors were determined by regression analysis. […]
smiles,measurement,setting,value
"N[C@@H](CCCCB(O)O)C(=O)O [compound 7, 2(S)-amino-6-boronohexanoic acid]",IC50,rat liver arginase,800 nM
same,decrease in basal IAS tension after ABHA,[1]; 0.5 Hertz EFS,56.5±7.0%
same,decrease in basal IAS tension after ABHA,[1]; 1 Hertz EFS,73.6±3.5%
same,effect on arginase-suppressed EFS-induced IAS relaxation,"[1]; exogenous arginase, L-HO-Arg 1×10^−4 molar, listed as ABHA",reversal
same,augmentation of NANC nerve-mediated IAS relaxation by EFS,"[1]; lower frequencies of EFS, listed as ABHA",significant and concentration-dependent augmentation
same,reversal of L-NNA-suppressed IAS relaxation,"[1]; with L-NNA, L-HO-Arg and ABHA 3×10^−4 molar",did not cause any reversal; also recorded: no effect
same,IC50,"IAS arginase activity; IAS, read-out: IC50 for inhibition of arginase activity, IAS homogenate",100 nM
same,Ki,"IAS arginase activity; arginine fixed at Km, assuming competitive inhibition, read-out: estimated Ki, IAS arginase activity",50 nM
